{"source": "patent US9284595B2", "about": "(priority 2012, dated 2016)", "key": {"BoNT/A-LC [1]": {"target": "T1, BoNT/A-LC (Clostridium botulinum, UniProt P0DPI0)", "T1 sequence (P0DPI0 2-448 limits assumed)": "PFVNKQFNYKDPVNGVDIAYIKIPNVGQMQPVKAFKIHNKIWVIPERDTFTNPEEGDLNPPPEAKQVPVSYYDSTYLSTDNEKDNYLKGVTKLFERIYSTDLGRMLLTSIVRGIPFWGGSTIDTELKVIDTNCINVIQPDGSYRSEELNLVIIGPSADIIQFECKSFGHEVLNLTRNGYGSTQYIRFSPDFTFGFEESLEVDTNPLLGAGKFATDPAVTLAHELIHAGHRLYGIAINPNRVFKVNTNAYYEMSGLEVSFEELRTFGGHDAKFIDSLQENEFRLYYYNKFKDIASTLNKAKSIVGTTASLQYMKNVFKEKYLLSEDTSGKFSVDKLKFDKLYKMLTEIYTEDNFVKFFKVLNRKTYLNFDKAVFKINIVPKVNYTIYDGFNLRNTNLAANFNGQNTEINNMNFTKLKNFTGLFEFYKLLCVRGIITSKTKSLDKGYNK", "assay_type": "biochemical"}, "BoNT/A Holotoxin": {"target": "BoNT/A Holotoxin (Clostridium botulinum, UniProt P0DPI0)", "sequence (P0DPI0 2-448 limits assumed)": "as above", "assay_type": "biochemical"}, "BoNT/A-LC [2]": {"target": "T1, BoNT/A-LC", "assay_type": "biochemical", "remark": "listed apart in the source"}, "[3]": {"target": "heat inactivated BoNT/A-LC (Clostridium botulinum, UniProt P0DPI0)", "sequence (P0DPI0 2-448 limits assumed)": "as above"}, "BoNT/A Toxoid": {"target": "BoNT/A Toxoid (Clostridium botulinum, UniProt P0DPI0)", "sequence (P0DPI0 2-448 limits assumed)": "as above"}}, "data": [{"compound": "O[C@H](CS)[C@H](O)CS", "note": "(racemic) [DTT, Dithiothreitol]", "values": [{"measurement": "effect on BoNT/A-LC activity", "setting": "BoNT/A-LC [1]", "result": "reduced BoNT/A-LC activity"}]}, {"compound": "O=C(O)CCP(CCC(=O)O)CCC(=O)O", "note": "[TCEP, tris(2-carboxyethyl)phosphine, reference compound]", "values": [{"measurement": "performance of TCEP concentration in BoNT/A Holotoxin assay", "setting": "BoNT/A Holotoxin", "result": "samples with 1.0 mM TCEP performed better than samples with 2.0 mM TCEP"}, {"measurement": "performance of reducing agent in BoNT/A-LC assay", "setting": "BoNT/A-LC [2]", "result": "performed better than samples with DTT (and zinc), and even better than samples containing no reducing agent"}]}, {"compound": "(KDabcyl)TRIDEANQRATKML(K5Fam) [SEQ. ID NO. 6]", "values": [{"measurement": "detection of BoNT/A-LC activity", "setting": "BoNT/A-LC [2]", "result": "incapable of detecting BoNT/A-LC activity"}]}, {"compound": "MDENLEQVSGIIGNLRHMALDMGNEIDTQNRQIDRIMEKADSN(KDabcyl)TRIDEANQRATKML(K5Fam) [SEQ. ID NO. 1]", "values": [{"measurement": "detection of heat inactivated BoNT/A-LC", "setting": "[3]", "result": "not heat inactivated BoNT/A-LC, even when present at high concentrations"}, {"measurement": "detection of BoNT/A-LC activity", "setting": "BoNT/A-LC [2]", "result": "able to detect BoNT/A-LC"}, {"measurement": "detection of BoNT/A-LC activity in the presence of common PCR inhibitors", "setting": "BoNT/A-LC [2]", "result": "can detect BoNT/A-LC activity in the presence of common PCR inhibitors"}, {"measurement": "detection of biologically active BoNT/A-LC", "setting": "BoNT/A-LC [2]", "result": "able to detect biologically active BoNT/A-LC"}, {"measurement": "fluorescence response to BoNT/A-LC", "setting": "BoNT/A-LC [2]", "result": "able to detect biologically active BoNT/A-LC"}, {"measurement": "increase in fluorescence overtime compared to SNAPtide", "setting": "BoNT/A-LC [2]", "result": "greater increase in fluorescence overtime"}, {"measurement": "limit of detection of BoNT/A-LC", "setting": "BoNT/A-LC [2]", "result": "at least 0.04 ng"}, {"measurement": "detection of BoNT/A Toxoid", "setting": "BoNT/A Toxoid", "result": "not BoNT/A Toxoid, even when present at high concentrations"}]}]}
